Laboratory results published in the NIST ThermoML archive (doi:10.1021/je500696p).
Numbers after ± are expanded uncertainties.

Assays:
[1] = excess molar enthalpy (molar enthalpy of mixing); xn = mol fraction of the nth substance listed; conditions: 100 kPa, Liquid, Calvet calorimetry
[2] = xn = mol fraction of the nth substance listed; conditions: 100 kPa, Liquid, Vibrating tube method

CCCC[N+](C)(C)C.O=S(=O)([N-]S(=O)(=O)C(F)(F)F)C(F)(F)F [butyltrimethylammonium bis(trifluoromethylsulfonyl)imide] + CCO
Conditions | excess molar enthalpy [kcal/mol] | mass density [kg/m3]
[1], 308.15 K, x2 = 0.1229 | 0.203 ± 0.00837 | –
[1], 308.15 K, x2 = 0.2546 | 0.389 ± 0.0158 | –
[1], 308.15 K, x2 = 0.2623 | 0.396 ± 0.016 | –
[1], 308.15 K, x2 = 0.2752 | 0.411 ± 0.0167 | –
[1], 308.15 K, x2 = 0.3943 | 0.51 ± 0.0208 | –
[1], 308.15 K, x2 = 0.5084 | 0.559 ± 0.0227 | –
[1], 308.15 K, x2 = 0.5133 | 0.551 ± 0.0225 | –
[1], 308.15 K, x2 = 0.5408 | 0.557 ± 0.0227 | –
[1], 308.15 K, x2 = 0.6267 | 0.544 ± 0.0222 | –
[1], 308.15 K, x2 = 0.7252 | 0.509 ± 0.0208 | –
[1], 308.15 K, x2 = 0.7354 | 0.503 ± 0.0206 | –
[1], 308.15 K, x2 = 0.7659 | 0.467 ± 0.0191 | –
[1], 308.15 K, x2 = 0.8645 | 0.352 ± 0.0143 | –
[1], 313.15 K, x2 = 0.113 | 0.187 ± 0.00765 | –
[1], 313.15 K, x2 = 0.2393 | 0.374 ± 0.0153 | –
[1], 313.15 K, x2 = 0.2549 | 0.385 ± 0.0158 | –
[1], 313.15 K, x2 = 0.3933 | 0.518 ± 0.021 | –
[1], 313.15 K, x2 = 0.4936 | 0.569 ± 0.0232 | –
[1], 313.15 K, x2 = 0.4959 | 0.567 ± 0.0232 | –
[1], 313.15 K, x2 = 0.499 | 0.568 ± 0.0232 | –
[1], 313.15 K, x2 = 0.6245 | 0.564 ± 0.0229 | –
[1], 313.15 K, x2 = 0.7406 | 0.507 ± 0.0206 | –
[1], 313.15 K, x2 = 0.8666 | 0.369 ± 0.0151 | –
[1], 323.15 K, x2 = 0.1187 | 0.185 ± 0.00765 | –
[1], 323.15 K, x2 = 0.2569 | 0.406 ± 0.0165 | –
[1], 323.15 K, x2 = 0.2694 | 0.422 ± 0.0172 | –
[1], 323.15 K, x2 = 0.3969 | 0.538 ± 0.022 | –
[1], 323.15 K, x2 = 0.527 | 0.6 ± 0.0239 | –
[1], 323.15 K, x2 = 0.5431 | 0.611 ± 0.0239 | –
[1], 323.15 K, x2 = 0.6214 | 0.598 ± 0.0239 | –
[1], 323.15 K, x2 = 0.7499 | 0.548 ± 0.0222 | –
[1], 323.15 K, x2 = 0.8707 | 0.413 ± 0.0167 | –
[2], 293.15 K, x2 = 0 | – | 1397.1 ± 5.6
[2], 293.15 K, x2 = 0.1284 | – | 1379.5 ± 5.5
[2], 293.15 K, x2 = 0.2585 | – | 1357.1 ± 5.4
[2], 293.15 K, x2 = 0.3814 | – | 1329.7 ± 5.3
[2], 293.15 K, x2 = 0.5031 | – | 1293.9 ± 5.2
[2], 293.15 K, x2 = 0.6487 | – | 1232.1 ± 5
[2], 293.15 K, x2 = 0.7823 | – | 1142 ± 4.6
[2], 293.15 K, x2 = 0.8561 | – | 1066.3 ± 4.3
[2], 293.15 K, x2 = 0.8763 | – | 1040.6 ± 4.2
[2], 293.15 K, x2 = 0.9039 | – | 1000.1 ± 4
[2], 293.15 K, x2 = 0.95 | – | 916.4 ± 3.7
[2], 293.15 K, x2 = 0.9745 | – | 860.2 ± 3.4
[2], 295.15 K, x2 = 0 | – | 1395.3 ± 5.6
[2], 295.15 K, x2 = 0.1284 | – | 1377.7 ± 5.5
[2], 295.15 K, x2 = 0.2585 | – | 1355.3 ± 5.4
[2], 295.15 K, x2 = 0.3814 | – | 1327.8 ± 5.3
[2], 295.15 K, x2 = 0.5031 | – | 1292 ± 5.2
[2], 295.15 K, x2 = 0.6487 | – | 1230.3 ± 4.9
[2], 295.15 K, x2 = 0.7823 | – | 1140.1 ± 4.6
[2], 295.15 K, x2 = 0.8561 | – | 1064.5 ± 4.3
[2], 295.15 K, x2 = 0.8763 | – | 1038.8 ± 4.2
[2], 295.15 K, x2 = 0.9039 | – | 998.3 ± 4
[2], 295.15 K, x2 = 0.95 | – | 914.6 ± 3.7
[2], 295.15 K, x2 = 0.9745 | – | 858.4 ± 3.4
[2], 298.15 K, x2 = 0 | – | 1392.7 ± 5.6
[2], 298.15 K, x2 = 0.1284 | – | 1375.1 ± 5.5
[2], 298.15 K, x2 = 0.2585 | – | 1352.6 ± 5.4
[2], 298.15 K, x2 = 0.3814 | – | 1325.1 ± 5.3
[2], 298.15 K, x2 = 0.5031 | – | 1289.3 ± 5.2
[2], 298.15 K, x2 = 0.6487 | – | 1227.5 ± 4.9
[2], 298.15 K, x2 = 0.7823 | – | 1137.3 ± 4.6
[2], 298.15 K, x2 = 0.8561 | – | 1061.7 ± 4.3
[2], 298.15 K, x2 = 0.8763 | – | 1036 ± 4.2
[2], 298.15 K, x2 = 0.9039 | – | 995.6 ± 4
[2], 298.15 K, x2 = 0.95 | – | 911.9 ± 3.7
[2], 298.15 K, x2 = 0.9745 | – | 855.8 ± 3.4
[2], 303.15 K, x2 = 0 | – | 1388.3 ± 5.6
[2], 303.15 K, x2 = 0.1284 | – | 1370.6 ± 5.5
[2], 303.15 K, x2 = 0.2585 | – | 1348.1 ± 5.4
[2], 303.15 K, x2 = 0.3814 | – | 1320.6 ± 5.3
[2], 303.15 K, x2 = 0.5031 | – | 1284.7 ± 5.2
[2], 303.15 K, x2 = 0.6487 | – | 1222.8 ± 4.9
[2], 303.15 K, x2 = 0.7823 | – | 1132.7 ± 4.5
[2], 303.15 K, x2 = 0.8561 | – | 1057.1 ± 4.2
[2], 303.15 K, x2 = 0.8763 | – | 1031.4 ± 4.1
[2], 303.15 K, x2 = 0.9039 | – | 991 ± 4
[2], 303.15 K, x2 = 0.95 | – | 907.4 ± 3.6
[2], 303.15 K, x2 = 0.9745 | – | 851.4 ± 3.4
[2], 308.15 K, x2 = 0 | – | 1384 ± 5.6
[2], 308.15 K, x2 = 0.1284 | – | 1366.2 ± 5.5
[2], 308.15 K, x2 = 0.2585 | – | 1343.7 ± 5.4
[2], 308.15 K, x2 = 0.3814 | – | 1316.1 ± 5.3
[2], 308.15 K, x2 = 0.5031 | – | 1280.1 ± 5.1
[2], 308.15 K, x2 = 0.6487 | – | 1218.2 ± 4.9
[2], 308.15 K, x2 = 0.7823 | – | 1128 ± 4.5
[2], 308.15 K, x2 = 0.8561 | – | 1052.4 ± 4.2
[2], 308.15 K, x2 = 0.8763 | – | 1026.8 ± 4.1
[2], 308.15 K, x2 = 0.9039 | – | 986.4 ± 4
[2], 308.15 K, x2 = 0.95 | – | 902.9 ± 3.6
[2], 308.15 K, x2 = 0.9745 | – | 846.9 ± 3.4
[2], 313.15 K, x2 = 0 | – | 1379.6 ± 5.5
[2], 313.15 K, x2 = 0.1284 | – | 1361.8 ± 5.5
[2], 313.15 K, x2 = 0.2585 | – | 1339.2 ± 5.4
[2], 313.15 K, x2 = 0.3814 | – | 1311.6 ± 5.3
[2], 313.15 K, x2 = 0.5031 | – | 1275.6 ± 5.1
[2], 313.15 K, x2 = 0.6487 | – | 1213.6 ± 4.9
[2], 313.15 K, x2 = 0.7823 | – | 1123.3 ± 4.5
[2], 313.15 K, x2 = 0.8561 | – | 1047.8 ± 4.2
[2], 313.15 K, x2 = 0.8763 | – | 1022.1 ± 4.1
[2], 313.15 K, x2 = 0.9039 | – | 981.8 ± 3.9
[2], 313.15 K, x2 = 0.95 | – | 898.4 ± 3.6
[2], 313.15 K, x2 = 0.9745 | – | 842.5 ± 3.4
[2], 318.15 K, x2 = 0 | – | 1375.2 ± 5.5
[2], 318.15 K, x2 = 0.1284 | – | 1357.4 ± 5.4
[2], 318.15 K, x2 = 0.2585 | – | 1334.8 ± 5.4
[2], 318.15 K, x2 = 0.3814 | – | 1307.1 ± 5.2
[2], 318.15 K, x2 = 0.5031 | – | 1271 ± 5.1
[2], 318.15 K, x2 = 0.6487 | – | 1209 ± 4.8
[2], 318.15 K, x2 = 0.7823 | – | 1118.6 ± 4.5
[2], 318.15 K, x2 = 0.8561 | – | 1043.1 ± 4.2
[2], 318.15 K, x2 = 0.8763 | – | 1017.4 ± 4.1
[2], 318.15 K, x2 = 0.9039 | – | 977.1 ± 3.9
[2], 318.15 K, x2 = 0.95 | – | 893.8 ± 3.6
[2], 318.15 K, x2 = 0.9745 | – | 838 ± 3.4
[2], 323.15 K, x2 = 0 | – | 1370.9 ± 5.5
[2], 323.15 K, x2 = 0.1284 | – | 1353.1 ± 5.4
[2], 323.15 K, x2 = 0.2585 | – | 1330.4 ± 5.3
[2], 323.15 K, x2 = 0.3814 | – | 1302.6 ± 5.2
[2], 323.15 K, x2 = 0.5031 | – | 1266.5 ± 5.1
[2], 323.15 K, x2 = 0.6487 | – | 1204.4 ± 4.8
[2], 323.15 K, x2 = 0.7823 | – | 1114 ± 4.5
[2], 323.15 K, x2 = 0.8561 | – | 1038.4 ± 4.2
[2], 323.15 K, x2 = 0.8763 | – | 1012.7 ± 4.1
[2], 323.15 K, x2 = 0.9039 | – | 972.4 ± 3.9
[2], 323.15 K, x2 = 0.95 | – | 889.2 ± 3.6
[2], 323.15 K, x2 = 0.9745 | – | 833.4 ± 3.3
[2], 328.15 K, x2 = 0 | – | 1366.6 ± 5.5
[2], 328.15 K, x2 = 0.1284 | – | 1348.7 ± 5.4
[2], 328.15 K, x2 = 0.2585 | – | 1325.9 ± 5.3
[2], 328.15 K, x2 = 0.3814 | – | 1298.1 ± 5.2
[2], 328.15 K, x2 = 0.5031 | – | 1261.9 ± 5.1
[2], 328.15 K, x2 = 0.6487 | – | 1199.7 ± 4.8
[2], 328.15 K, x2 = 0.7823 | – | 1109.2 ± 4.4
[2], 328.15 K, x2 = 0.8561 | – | 1033.7 ± 4.1
[2], 328.15 K, x2 = 0.8763 | – | 1008 ± 4
[2], 328.15 K, x2 = 0.9039 | – | 967.7 ± 3.9
[2], 328.15 K, x2 = 0.95 | – | 884.5 ± 3.5
[2], 328.15 K, x2 = 0.9745 | – | 828.8 ± 3.3
[2], 333.15 K, x2 = 0 | – | 1362.3 ± 5.5
[2], 333.15 K, x2 = 0.1284 | – | 1344.3 ± 5.4
[2], 333.15 K, x2 = 0.2585 | – | 1321.5 ± 5.3
[2], 333.15 K, x2 = 0.3814 | – | 1293.7 ± 5.2
[2], 333.15 K, x2 = 0.5031 | – | 1257.4 ± 5
[2], 333.15 K, x2 = 0.6487 | – | 1195.1 ± 4.8
[2], 333.15 K, x2 = 0.7823 | – | 1104.5 ± 4.4
[2], 333.15 K, x2 = 0.8561 | – | 1028.9 ± 4.1
[2], 333.15 K, x2 = 0.8763 | – | 1003.3 ± 4
[2], 333.15 K, x2 = 0.9039 | – | 963 ± 3.9
[2], 333.15 K, x2 = 0.95 | – | 879.8 ± 3.5
[2], 333.15 K, x2 = 0.9745 | – | 824.2 ± 3.3
